Results taken from US20240140938A1, “PREPARATION OF TETRAHYDROINDAZOLE DERIVATIVES AS NOVEL DIACYLGLYCERIDE O-ACYLTRANSFERASE 2 INHIBITORS” (MERCK SHARP & DOHME LLC, priority 2020, published 2024).

molecular target: human DGAT2 (hDGAT2) (Homo sapiens (Human), UniProt Q96PD7); experiment: DGAT2 Enzymatic Activity Assay; assay type: biochemical; settings: hDGAT2 Sf-9 membrane prep; 13C18-triolein product by LC/MS/MS; 25 μM diolein, 5 μM 13C oleoyl-CoA
Experimental: Sf-9 insect cells were maintained in Grace's insect cell culture medium with 10% heated-inactivated fetal bovine serum, 1% Pluronic F-68 and 0.14 μg/ml Kanamycine sulfate at 27° C. in a shaker incubator. After infection with untagged baculovirus expressing human DGAT2 (hDGAT2) at multiplicity of infection (MOI) 3 for 48 hours, cells were harvested. Cell pellets were suspended in buffer containing 10 mM Tris-HCl pH 7.5, 1 mM EDTA, 250 mM sucrose and Complete Protease Inhibitor Cocktail (Sigma Aldrich), and sonicated on ice. Cell debris were removed by centrifugation at 2000×g for 15 minutes. Membrane fractions were isolated by ultracentrifugation (100,000×g), resuspended in the same buffer, and frozen (−80° C.) for later use. The protein concentration was determined with the Pierce™ BCA Protein Assay Kit (Thermo Fisher Scientific).
LC/MS/MS analyses were performed using Thermal Fisher's LX4-TSQ Vantage system. This system consists of an Agilent binary high-performance liquid chromatography (HPLC) pump and a TSQ Vantage triple quadrupole MS/MS instrument. For each sample, 2 μL samples from the top organic layer of in-plate liquid-liquid extraction were injected onto a Thermo Betabasic C4 column (2.1 mm×20 mm, 5 μm particle size). The samples were then eluted using the following conditions; mobile phase: Isopropanol: acetonitrile/10 mM ammonium formate=50/35/15 (v/v/v), flow rate: 0.8 mL/min, temperature: 25° C. Data was acquired in positive mode using a heated electrospray ionization (HESI) interface. […] The peak area was integrated by Xcalibur Quan software. The ratio between the ^13C18triolein generated in the reaction and spiked in internal standard ^13C21-triolein was used to generate percentage inhibition and IC50 values. Compound percentage inhibition was calculated by the following formula: Inhibition %=1−[(compound response−low control)/(high control−low control)]×100%.
DGAT2 activity was determined by measuring the amount of enzymatic product ^13C18-triolein (^13C-1,2,3-Tri(cis-9-octadecenoyl)glycerol) using the membrane prep mentioned above. The assay was carried out in ABgene 384-well assay plates in a final volume of 25 μL at rt.

human DGAT2 (hDGAT2), sequence (Q96PD7 whole entry): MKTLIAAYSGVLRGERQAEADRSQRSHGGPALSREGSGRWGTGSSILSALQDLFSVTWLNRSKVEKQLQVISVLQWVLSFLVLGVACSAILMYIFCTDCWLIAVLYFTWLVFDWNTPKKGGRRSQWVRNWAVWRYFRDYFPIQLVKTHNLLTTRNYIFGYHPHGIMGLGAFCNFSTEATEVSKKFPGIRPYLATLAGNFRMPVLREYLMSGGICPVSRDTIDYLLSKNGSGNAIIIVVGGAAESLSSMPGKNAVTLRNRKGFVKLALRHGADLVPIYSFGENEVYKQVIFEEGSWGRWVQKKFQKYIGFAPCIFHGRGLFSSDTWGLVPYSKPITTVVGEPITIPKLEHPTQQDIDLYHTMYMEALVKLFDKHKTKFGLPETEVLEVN

IC50 [µM]	SMILES
0.0049	C[C@]1(NC(=O)[C@@H]2CCc3c(-c4cccc(OC(F)F)c4)nn(-c4ccc(F)cn4)c3C2)CCS(=O)(=O)C1 [Example 3, (R)-3-(3-(difluoromethoxy)phenyl)-1-(5-fluoropyridin-2-yl)-N-((S)-3-methyl-1,1-dioxidotetrahydrothiophen-3-yl)-4,5,6,7-tetrahydro-1H-indazole-6-carboxamide]
0.0051	CC1(NC(=O)[C@@H]2CCc3c(-c4cccc(OC(F)F)c4)nn(-c4ccc(F)cn4)c3C2)CS(=O)(=O)C1 [Example 4, (R)-3-(3-(difluoromethoxy)phenyl)-1-(5-fluoropyridin-2-yl)-N-(3-methyl-1,1-dioxidothietan-3-yl)-4,5,6,7-tetrahydro-1H-indazole-6-carboxamide]
0.542	C[C@]1(NC(=O)C2CCc3c(-c4cncc(OC(F)F)c4)nn(-c4nnc(C5CC5)s4)c3C2)CCS(=O)(=O)C1 (stereo partly drawn) [Example 5, 1-(5-cyclopropyl-1,3,4-thiadiazol-2-yl)-3-(5-(difluoromethoxy)pyridin-3-yl)-N-((S)-3-methyl-1,1-dioxidotetrahydrothiophen-3-yl)-4,5,6,7-tetrahydro-1H-indazole-6-carboxamide]
0.012	CC1(NC(=O)[C@@H]2CCc3c(-c4cccc(OC(F)F)c4)nn(-c4ccc(F)cn4)c3C2)CC(F)(F)C1 [Example 7, (R)-N-(3,3-difluoro-1-methylcyclobutyl)-3-(3-(difluoromethoxy)phenyl)-1-(5-fluoropyridin-2-yl)-4,5,6,7-tetrahydro-1H-indazole-6-carboxamide]
0.0102	CC1(NC(=O)[C@@H]2CCc3c(-c4cccc(OC(F)F)c4)nn(-c4ncc(F)cc4F)c3C2)CS(=O)(=O)C1 [Example 9, (R)-3-(3-(difluoromethoxy)phenyl)-1-(3,5-difluoropyridin-2-yl)-N-(3-methyl-1,1-dioxidothietan-3-yl)-4,5,6,7-tetrahydro-1H-indazole-6-carboxamide]
0.037	C[C@]1(NC(=O)C2CCc3c(-c4cccc(OC(F)F)c4)nn(-c4ncc(Cl)cn4)c3C2)CCS(=O)(=O)C1 (stereo partly drawn) [Example 10, 1-(5-chloropyrimidin-2-yl)-3-(3-(difluoromethoxy)phenyl)-N-((S)-3-methyl-1,1-dioxidotetrahydrothiophen-3-yl)-4,5,6,7-tetrahydro-1H-indazole-6-carboxamide]
0.0658	CC1(NC(=O)[C@@H]2CCc3c(-c4cncc(OC(F)F)c4)nn(-c4ccc(F)cn4)c3C2)CS(=O)(=O)C1 [Example 12, (R)-3-(5-(difluoromethoxy)pyridin-3-yl)-1-(5-fluoropyridin-2-yl)-N-(3-methyl-1,1-dioxidothietan-3-yl)-4,5,6,7-tetrahydro-1H-indazole-6-carboxamide]
0.02	C[C@]1(NC(=O)[C@@H]2CCc3c(-c4cccc(C5CC(F)(F)C5)c4)nn(-c4ccc(F)cc4)c3C2)CCS(=O)(=O)C1 [Example 13, (R)-3-(3-(3,3-difluorocyclobutyl)phenyl)-1-(4-fluorophenyl)-N-((S)-3-methyl-1,1-dioxidotetrahydrothiophen-3-yl)-4,5,6,7-tetrahydro-1H-indazole-6-carboxamide]
0.0139	C[C@]1(NC(=O)[C@@H]2CCc3c(-c4cncc(OC(F)F)c4)nn(-c4ccc(F)cn4)c3C2)CCS(=O)(=O)C1 [Example 14, (R)-3-(5-(difluoromethoxy)pyridin-3-yl)-1-(5-fluoropyridin-2-yl)-N-((S)-3-methyl-1,1-dioxidotetrahydrothiophen-3-yl)-4,5,6,7-tetrahydro-1H-indazole-6-carboxamide]
0.0669	O=C(N[C@@H]1CCC[C@H]1N1CCOCC1)C1CCc2c(-c3cccc(OC(F)F)c3)nn(-c3ccc(F)cn3)c2C1 (stereo partly drawn) [Example 16, 3-(3-(difluoromethoxy)phenyl)-1-(5-fluoropyridin-2-yl)-N-((1R,2R)-2-morpholinocyclopentyl)-4,5,6,7-tetrahydro-1H-indazole-6-carboxamide]
0.0707	C[C@]1(NC(=O)[C@@H]2CCc3c(-c4cccc(C5(F)CC5)c4)nn(-c4ccc(F)cc4)c3C2)CCS(=O)(=O)C1 [Example 17, (R)-3-(3-(1-fluorocyclopropyl)phenyl)-1-(4-fluorophenyl)-N-((S)-3-methyl-1,1-dioxidotetrahydrothiophen-3-yl)-4,5,6,7-tetrahydro-1H-indazole-6-carboxamide]
> 10	CC(C)(N)c1cccc(-c2nn(-c3ccc(F)cc3)c3c2CC[C@@H](C(=O)N[C@@]2(C)CCS(=O)(=O)C2)C3)c1 [Example 18, (R)-3-(3-(2-aminopropan-2-yl)phenyl)-1-(4-fluorophenyl)-N-((S)-3-methyl-1,1-dioxidotetrahydrothiophen-3-yl)-4,5,6,7-tetrahydro-1H-indazole-6-carboxamide]
> 10	C[C@]1(NC(=O)[C@@H]2CCc3c(-c4cncc(OC(F)F)n4)nn(-c4ccc(F)cn4)c3C2)CCS(=O)(=O)C1 [Example 19, (R)-3-(6-(difluoromethoxy)pyrazin-2-yl)-1-(5-fluoropyridin-2-yl)-N-((S)-3-methyl-1,1-dioxidotetrahydrothiophen-3-yl)-4,5,6,7-tetrahydro-1H-indazole-6-carboxamide]
8.43	Cn1nccc1-c1nn(-c2ccc(F)cn2)c2c1CC[C@@H](C(=O)N[C@@]1(C)CCS(=O)(=O)C1)C2 [Example 20, (R)-1-(5-fluoropyridin-2-yl)-N-((S)-3-methyl-1,1-dioxidotetrahydrothiophen-3-yl)-3-(1-methyl-1H-pyrazol-5-yl)-4,5,6,7-tetrahydro-1H-indazole-6-carboxamide]
0.0438	CC(C)n1nc(-c2cc(OC(F)F)ncc2F)c2c1C[C@H](C(=O)NC1(C)CCS(=O)(=O)CC1)CC2 [Example 21, (R)-3-(2-(difluoromethoxy)-5-fluoropyridin-4-yl)-1-isopropyl-N-(4-methyl-1,1-dioxidotetrahydro-2H-thiopyran-4-yl)-4,5,6,7-tetrahydro-1H-indazole-6-carboxamide]
0.144	CCOc1cc(-c2nn(C(C)C)c3c2CC[C@@H](C(=O)NC2(C)CCS(=O)(=O)CC2)C3)c(F)cn1 [Example 22, (R)-3-(2-ethoxy-5-fluoropyridin-4-yl)-1-isopropyl-N-(4-methyl-1,1-dioxidotetrahydro-2H-thiopyran-4-yl)-4,5,6,7-tetrahydro-1H-indazole-6-carboxamide]
0.169	CC1(NC(=O)[C@@H]2CCc3c(-c4cccc(OC(F)F)c4)nn(C4CCOCC4)c3C2)CS(=O)(=O)C1 [Example 23, (R)-3-(3-(difluoromethoxy)phenyl)-N-(3-methyl-1,1-dioxidothietan-3-yl)-1-(tetrahydro-2H-pyran-4-yl)-4,5,6,7-tetrahydro-1H-indazole-6-carboxamide]
0.144	C[C@]1(NC(=O)[C@@H]2CCc3c(-c4cccc(OC(F)F)c4)nn(C4CCS(=O)(=O)CC4)c3C2)CCS(=O)(=O)C1 [Example 24, (R)-3-(3-(difluoromethoxy)phenyl)-1-(1,1-dioxidotetrahydro-2H-thiopyran-4-yl)-N-((S)-3-methyl-1,1-dioxidotetrahydrothiophen-3-yl)-4,5,6,7-tetrahydro-1H-indazole-6-carboxamide]
0.0598	CC(C)n1nc(-c2cccc(OC(F)F)c2)c2c1C[C@H](C(=O)N[C@@]1(C)CCS(=O)(=O)C1)CC2 [Example 25, (R)-3-(3-(difluoromethoxy)phenyl)-1-isopropyl-N-((S)-3-methyl-1,1-dioxidotetrahydrothiophen-3-yl)-4,5,6,7-tetrahydro-1H-indazole-6-carboxamide]
0.128	CC(C)(NC(=O)[C@@H]1CCc2c(-c3cccc(OC(F)F)c3)nn(C3CCOCC3)c2C1)c1ccc(C(F)(F)F)nc1 [Example 27, (R)-3-(3-(difluoromethoxy)phenyl)-1-(tetrahydro-2H-pyran-4-yl)-N-(2-(6-(trifluoromethyl)pyridin-3-yl)propan-2-yl)-4,5,6,7-tetrahydro-1H-indazole-6-carboxamide]
0.0301	CC(C)n1nc(-c2cc(OC(F)F)ccc2F)c2c1C[C@H](C(=O)N[C@@]1(C)CCS(=O)(=O)C1)CC2 [Example 28, (R)-3-(5-(difluoromethoxy)-2-fluorophenyl)-1-isopropyl-N-((S)-3-methyl-1,1-dioxidotetrahydrothiophen-3-yl)-4,5,6,7-tetrahydro-1H-indazole-6-carboxamide]

same assay, conditions: unit given as nm; hDGAT2 Sf-9 membrane prep; 13C18-triolein product by LC/MS/MS

IC50 [µM]	SMILES
0.0379	CC1(NC(=O)C2CCc3c(-c4ccccc4Cl)nn(-c4ccc(F)cc4)c3C2)CCS(=O)(=O)C1 (stereo not shown) [Example 1, 3-(2-chlorophenyl)-1-(4-fluorophenyl)-N-(3-methyl-1,1-dioxidotetrahydrothiophen-3-yl)-4,5,6,7-tetrahydro-1H-indazole-6-carboxamide]
